Test results as given in patent publication US9051278B2, “3,4-disubstituted 1H-pyrazole compounds and their use as cyclin dependent kinase and glycogen synthase kinase-3 modulators” (Astex Therapeutics, Ltd., priority 2003, dated 2015).

How the values were obtained:
[1] = tested on: human colon carcinoma cell line HCT 116; assay: Anti-proliferative activity, Alamar Blue assay; format: cell-based; settings: HCT 116, 72 hours, read-out: IC50 (inhibition of cell growth)
Description: The anti-proliferative activities of compounds of the invention are determined by measuring the ability of the compounds to inhibition of cell growth in a number of cell lines Inhibition of cell growth is measured using the Alamar Blue assay (Nociari, M. M, Shalev, A., Benias, P., Russo, C. Journal of Immunological Methods 1998, 213, 157-167). The method is based on the ability of viable cells to reduce resazurin to its fluorescent product resorufin. For each proliferation assay cells are plated onto 96 well plates and allowed to recover for 16 hours prior to the addition of inhibitor compounds for a further 72 hours. At the end of the incubation period 10% (v/v) Alamar Blue is added and incubated for a further 6 hours prior to determination of fluorescent product at […]. In the case of the non-proliferating cell assay cells are maintained at confluence for 96 hour prior to the addition of inhibitor compounds for a further 72 hours. The number of viable cells is determined by Alamar Blue assay as before. All cell lines are obtained from ECACC (European Collection of cell Cultures).

GSK3-β = biological target: T1, GSK3-β (Homo sapiens, UniProt P49841); assay: Inhibitory activity against glycogen synthase kinase-3 (Protocol A or B); format: biochemical; settings: either Protocol A or Protocol B; read-out: IC50 (GSK3-B assays)
T1 construct: purchased Upstate Discovery
Description: The activities of the compounds of the invention as inhibitors of GSK-3 were determined using either Protocol A or Protocol B below.
The reaction is allowed to proceed for 3 hours before being stopped with an excess of ortho-phosphoric acid (5 μl at 2%). The filtration procedure is as for Activated CDK2/CyclinA assay above.
GSK3β (human) is diluted to a 10× working stock in 50 mM Tris pH 7.5, 0.1 mM EGTA, 0.1 mM sodium vanadate, 0.1% β-mercaptoethanol, 1 mg/ml BSA.

T1 sequence (P49841 whole entry): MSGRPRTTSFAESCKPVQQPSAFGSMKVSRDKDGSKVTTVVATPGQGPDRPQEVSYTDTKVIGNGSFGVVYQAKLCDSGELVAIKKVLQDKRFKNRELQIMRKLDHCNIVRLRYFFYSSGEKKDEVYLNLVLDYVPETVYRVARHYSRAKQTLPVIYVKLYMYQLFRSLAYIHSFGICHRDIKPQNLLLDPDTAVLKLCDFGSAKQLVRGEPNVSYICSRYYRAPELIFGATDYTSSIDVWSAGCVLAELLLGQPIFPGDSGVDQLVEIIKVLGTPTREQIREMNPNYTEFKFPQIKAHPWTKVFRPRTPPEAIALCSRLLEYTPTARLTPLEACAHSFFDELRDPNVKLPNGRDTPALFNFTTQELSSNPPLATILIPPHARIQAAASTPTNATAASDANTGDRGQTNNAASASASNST

Row | IC50 [1] | IC50 (GSK3-β) | Compound
1 | < 20 µM |  | COc1ccc(CNC(=O)c2n[nH]cc2NC(=O)c2c(F)cccc2F)cc1 [Example 62]
2 | < 20 µM |  | CN1CCN(c2ccc(CNC(=O)c3n[nH]cc3NC(=O)c3c(F)cccc3F)cc2)CC1 [Example 64]
3 | < 20 µM | < 10 µM | CC(C)(C)C1CCC(NC(=O)c2n[nH]cc2NC(=O)c2c(F)cccc2F)CC1 (centres unmarked) [Example 77]

Row | Compound | IC50 [1] | IC50 (GSK3-β)
4 | O=C(NC1CCNCC1)c1n[nH]cc1NC(=O)c1c(Cl)cccc1Cl [Example 150] | < 20 µM | 
